pIC50: −log10 of the molar value.
Experiments:
TIMP-2 secretion by SFs = assay: TIMP-2 secretion ELISA; type: cell-based, human
Description: The secretion of TIMP-2 by SFs is determined to eliminate the factor of general suppression of SF secretory activity by the Ad-siRNAs as the cause of reduced expression of MMP1 in the reverse MMP1 assay. TIMP-2 is a protein that SFs express and secret constitutively. Secretion of TIMP-2 into the SF supernatant is blocked by the addition of BrefeldinA, a small molecule inhibitor of secretion. The level of SF TIMP-2 protein secretion is detected by ELISA. RASF cells are seeded in 96-well gelatin coated plates at 3000 cells/well in 100 μl synovial growth medium. After overnight incubation, cells are infected and incubated for 5 days at 37° C. in a 10% CO2 incubator. […] TIMP2 levels are determined by a standard ELISA assay, essentially as outlined for the MMP1 ELISA. […] After 5 minutes incubation at room temperature in the dark, luminescence is quantified on a luminometer (Luminoscan Ascent).
The procedure described above (plate layout, MOI, method for determination of the cutoff) applied for these experiments is identical to the one described for the toxicity measurements (i.e., a primary test with 12 μl infection volume and a retest with 3, 6, 12 μl infection volumes) differing only in that the cutoff applied in the primary test is determined as the average over all samples minus 2 times standard deviation over all samples. […]

[1] = test system: MMP1 expression by synovial fibroblasts (SFs); assay: reverse MMP1 assay: MMP1 ELISA on supernatant of SFs activated with TNFα-based trigger; type: cell-based; conditions: Homo sapiens, Fibroblast, supernatant collected 48 hours after trigger, FIG. 5, read-out: IC50 for reduction of TNF-based trigger-induced MMP1 expression by SFs
Description: A 384-well format ELISA for measurement of MMP1 is developed. Various primary antibodies are tested, as well as various ELISA protocols. The following protocol is developed and validated to measure MMP1 levels in SF supernatant in 384 well plates: white Lumitrac 600 384 well plates (Greiner) are coated with 2 μg/ml anti-MMP1 antibody MAB1346 (Chemicon). The antibody is diluted in buffer 40 (1.21 g Tris base (Sigma), 0.58 g NaCl (Calbiochem) and 5 ml 10% NaN3 (Sigma) in 1 L milliQ water and adjusted to pH 8.5). After overnight incubation at 4° C., plates are washed with PBS (80 g NaCl, 2 g KCl (Sigma), 11.5 g Na2HPO4.7H2O and 2 g KH2PO4 in 10 L milliQ; pH 7.4) and blocked with 100 μl/well Casein buffer (2% Casein (VWR International) in PBS). Next day, casein buffer is removed from ELISA plates and replaced by 50 μl/well EC buffer (4 g casein, 2.13 g Na2HPO4 (Sigma), 2 g bovine albumin (Sigma), 0.69 g NaH2PO4.H2O (Sigma), 0.5 g CHAPS (Roche), 23.3 g NaCl, 4 ml 0.5 M EDTA pH 8 (Invitrogen), 5 ml 10% NaN3 in 1 L milliQ and adjusted to pH 7.0). 0.25 mM DTT (Sigma) are added to the thawed samples plates. After removal of the EC buffer, 20 μl of sample are transferred to the ELISA plates. […] Readout is performed on the Luminoscan Ascent Luminometer (Labsystems) with an integration time of 200 msec or with an Envision reader (Perkin Elmer). […]

rheumatoid arthritis = conditions: RA patients, after 24 months treatment; cited from earlier work

Structure (SMILES): C[C@H]1CCC/C=C/[C@@H]2C[C@H](O)C[C@H]2[C@H](O)/C=C/C(=O)O1 [BrefeldinA]
- secretion of TIMP-2 into the SF supernatant (TIMP-2 secretion by SFs): blocked

Structure (SMILES): C[C@@H]1C[C@H]2[C@@H]3CCC4=CC(=O)C=C[C@]4(C)[C@@]3(F)[C@@H](O)C[C@]2(C)[C@@]1(O)C(=O)CO [dexamethasone]
- pIC50 [1]: ~9.00

Structure (SMILES): CN(Cc1cnc2nc(N)nc(N)c2n1)c1ccc(C(=O)N[C@@H](CCC(=O)O)C(=O)O)cc1 [methotrexate]
- patients achieving an ACR50 score (rheumatoid arthritis): 30%

— patent publication US8673268B2, “Molecular targets and compounds, and methods to identify the same, useful in the treatment of joint degenerative and inflammatory diseases” (Galapagos N.V., priority 2004, dated 2014)
